This is an account of results in article PMC6278556, “An Accurate and Effective Method for Measuring Osimertinib by UPLC-TOF-MS and Its Pharmacokinetic Study in Rats” (Molecules, 2018).

A short description of series [1]: Stability of osimertinib in rat plasma under various storage conditions. It is filed as in vitro ADME. The protocol:
The stabilities of this method, which include the freeze–thaw stability, autosampler stability, short-term stability and long-term stability, were evaluated through three QC samples after the sample preparation method. […] In addition, the long-term stability was evaluated through the determination of three QC samples that were kept at −80 °C for 30 days. All samples were considered stable with RSDs < ±15%.

A short description of series [2]: Pharmacokinetic study in SD rats after oral administration. Type of series: in vivo. The conditions noted are these: n = 7, mean ± SD, non-compartmental. The protocol: The pharmacokinetic study of osimertinib was applied to seven male SD rats using oral administration by gavage and the dosage was 4.5 mg/kg. Osimertinib was diluted and suspended by 0.5% sodium carboxymethylcellulose. No less than 0.3 mL rat plasma was sampled at 0, 1, 2, 3, 4, 5, 6, 7, 8, 10, 12, 24, 36, and 48 h after oral administration through the oculi chorioideae vein under the condition of light ether anesthesia. After 10 min centrifuging of all analytes at 5000× g, the supernatant was collected and frozen at −40 °C until analysis. The use of animals in the presented study was permitted by the Ethics Committee of the Hebei Medical University, and all animal studies were carried out according to the Guidance for the Care and Use of Laboratory Animals of the US National Institute of Health.
Ten microliters of IS solution (500 ng/mL) was prepared in 100 μL rat plasma and vortex-mixed for 20 s. After that step, 500 μL of acetonitrile was added to precipitate the protein. Then, the mixture was vortexed for 1 min and centrifuged at 12,000 rpm for 10 min. The supernatant was transferred into a new Eppendorf tube and evaporated to dryness through nitrogen gas at 45 °C. After 100 μL of acetonitrile was added to reconstitute the residue and vortexed for 1 min, all samples were centrifuged at 12,000× g for 10 min. Finally, 80 μL of the supernatant was collected and injected into UPLC sample vials before use.
Dynamic background subtraction is a novel technique performed using the Analyst software (AB Sciex, Foster City, CA, USA). In addition, the data of the pharmacokinetic study of osimertinib were collected and calculated by the DAS 2.1.1 software in the non-compartmental mode (Mathematical Pharmacology Professional Committee of China, Shanghai, China).

The conditions of series [3]: stated without source; cited from earlier work.
Setting [4] is: Sprague-Dawley (SD), rat, plasma, male SD rats, oral 4.5 mg/kg.

Like-named read-outs stand apart in the source and are kept apart here.

One may read the AUC(0-inf) as total exposure, with the tail of the curve extrapolated. Read a low AUC(0-inf) as low exposure. As usually defined, the AUC(0-t) is the area under the concentration-time curve up to a stated or last time point. A lower AUC(0-t) goes with less exposure. The Cmax is the peak of the concentration-time curve. Usually MRT stands for the average time that molecules of a dose stay in the body. For orientation: pKa means the negative logarithm of the acid dissociation constant. As for `C=CC(=O)Nc1cc(Nc2nccc(-c3cn(C)c4ccccc34)n2)c(OC)cc1N(C)CCN(C)C` [Osimertinib, N-(2-{2dimethylaminoethyl-methylamino}-4-methoxy-5-{[4-(1-methylindol-3-yl)pyrimidin-2yl]amino}phenyl)prop-2-enamide], the Stability in words result is on record as “stable” in series [1] (plasma samples, storage temperature (−80 °C) for at least 30 days); “good stability” in series [1] (rat plasma, autosampler temperature (4 °C) for 24 h); “good stability” in series [1] (rat plasma, room temperature (25 °C) for 24 h); “remained stable” in series [1] (rat plasma, three freeze (−80 °C) and thaw (0 °C) cycles). This molecule had an AUC(0-inf) in series [2] (setting [4]) of 426 ± 81.7 ng·h/mL. In series [2] (setting [4]), this molecule returned an AUC(0-t) of 382 ± 69 ng·h/mL. This molecule returned a Cmax in series [2] (setting [4]) of 28.5 ± 3.97 ng/mL. The molecule also had a mean residence time (MRT) in series [2] (setting [4]) of 14.5 ± 1.91 h. For the same molecule, the Vd/F in series [2] (Sprague-Dawley (SD), rat, plasma, male SD rats, oral 4.5 mg/kg, read-out: Vz/F (distribution volume)) was found to be 234 ± 66.7 L/kg. Besides, in series [2] (Sprague-Dawley (SD), rat, plasma, male SD rats, oral 4.5 mg/kg, read-out: t1/2z (terminal half-life) (converted)), the half-life was 898 ± 206 min. In addition, the “CLz/F (clearance)” value in series [2] (male SD rats, oral 4.5 mg/kg) amounted to 10.84 ± 1.94 L/h/kg. For the same molecule, the tmax came out at 4.80 ± 1.10 h in series [2] (male SD rats, oral 4.5 mg/kg, 4.5 mg/kg) and 4.5 h in series [2] (male, Sprague-Dawley (SD), rat, plasma, po, 4.5 mg/kg, read-out: tmax). Besides, the CL/F in series [2] (male, Sprague-Dawley (SD), rat, plasma, po, 4.5 mg/kg, read-out: CLz/F (clearance) (converted)) was ~181 mL/min/kg. In addition, the pKa in series [3] is recorded as 13.64.
